Results published in patent EP4813978A1, “COMPOUND TARGETING UBIQUITIN KRAS PROTEIN DEGRADATION AGENT, AND USE THEREOF” (Betta Pharmaceuticals Co., Ltd, priority 2023, dated 2025).

How the values were obtained:
AGS = test: Cell proliferation assay (Cell-titer Glo), AGS; format: cell-based; conditions: Homo sapiens, KRAS G12D, 96 h
Protocol: (§1) Cells with different mutations were seeded in low-attachment transparent 96-well plates at the seeding densities shown in Table 1, and incubated overnight in a cell culture incubator. After the cells adhered, the test compounds were added to the 96-well plates at final concentrations of 20000 nM, 5000 nM, 1250 nM, 312.5 nM, 78.13 nM, 19.53 nM, 4.88 nM, 1.22 nM, 0.31 nM, 0 nM (the final concentration of DMSO was 0.25% in all wells). After culturing at 37°C for 96 h, 50 µL of Cell-titer Glo working solution was added to each well. The plates were shaken to mix and then incubated at room temperature for 10 min. Luminescence values were read on a multimode microplate reader, and the luminescence data were converted into percentage inhibition. The percentage of cell proliferation inhibition was calculated according to the following formula: Percentage inhibition = (1−(TestValue−Blank)/(MaxValue−Blank)) × 100% [formula]
(§2) ("Max value" is from the 0.25% DMSO control wells, "Blank" is from the blank medium control wells, and "Test Value" is from the compound-treated wells).
(§3) Curve fitting was performed using GraphPad Prism software to obtain IC50 (nM) values.

SW620 = test: Cell proliferation assay (Cell-titer Glo), SW620; format: cell-based; conditions: Homo sapiens, SW-620, SW620, KRAS G12V, 96 h
Protocol: as §1, §2, §3

Panc0403 = test: Cell proliferation assay (Cell-titer Glo), Panc0403; format: cell-based; conditions: Homo sapiens, Panc 04.03, Panc0403, KRAS G12D, 96 h
Protocol: as §1, §2, §3

AsPC-1 = test: Cell proliferation assay (Cell-titer Glo), AsPC-1; format: cell-based; conditions: Homo sapiens, ASPC1, AsPC-1, KRAS G12D, 96 h
Protocol: as §1, §2, §3

MKN-1 = test: Cell proliferation assay (Cell-titer Glo), MKN-1; format: cell-based; conditions: Homo sapiens, MKN-1, KRAS WT-Amp, 96 h
Protocol: as §1, §2, §3

HCT116 = test: Cell proliferation assay (Cell-titer Glo), HCT116; format: cell-based; conditions: Homo sapiens, HCT-116, HCT116, KRAS G13D, 96 h
Protocol: as §1, §2, §3

[1] = PK study in ICR mice, intravenous single administration; format: in vivo; conditions: female, 3 mg/kg
Protocol: Compound 115 was mixed with the vehicle 10% DMSO/5% Solutol/85% physiological saline, vortexed and sonicated to prepare a 0.6 mg/mL clear solution. Female ICR mice aged 6 to 7 weeks were selected, not fasted, and administered Compound 115 intravenously. Whole blood was collected at certain time points. Drug concentrations were analyzed by LC-MS/MS method, and pharmacokinetic parameters were calculated using Phoenix WinNonlin software (Pharsight, USA). Table 3. Mouse PK data for intravenous single administration of Compound 115

[2] = PK study in SD rats, intravenous single administration; format: in vivo; conditions: male, 3 mg/kg
Protocol: Compound 115 was mixed with the vehicle 10% DMSO/5% Solutol/85% physiological saline, vortexed and sonicated to prepare a 1.5 mg/mL clear solution. Male SD rats aged 6 to 7 weeks were selected, fasted for 8 h, and then administered Compound 115 intravenously. Whole blood was collected at certain time points. Drug concentrations were analyzed by LC-MS/MS method, and pharmacokinetic parameters were calculated using Phoenix WinNonlin software (Pharsight, USA). Table 4. Rat PK data for intravenous single administration of Compound 115

[3] = PK study in Beagle dogs, intravenous single administration; format: in vivo; conditions: one female and one male, 3 mg/kg
Protocol: Compound 115 was mixed with the vehicle 10% DMSO/5% Solutol/85% physiological saline, vortexed and sonicated to prepare a 1.5 mg/mL clear intravenous injection solution. Beagle dogs weighing approximately 10 kg (half male, half female) were selected, not fasted, and administered Compound 115 intravenously. Whole blood samples were collected intravenously at 5 min, 15 min, 30 min, 1 h, 2 h, 4 h, 6 h, 8 h, 10 h, 24 h, 48 h, and 72 h. Drug concentrations were analyzed by LC-MS/MS method, and pharmacokinetic parameters were calculated using Phoenix WinNonlin software (Pharsight, USA). Table 5. Beagle Dog PK data for intravenous single administration of Compound 115

IC50 (AGS): 0.9 nM | IC50 (SW620): 8 nM | IC50 (Panc0403): 5.9 nM | IC50 (AsPC-1): 1.9 nM | IC50 (MKN-1): 0.7 nM | IC50 (HCT116): 20 nM | Cl_obs [1]: 13.7 mL/min/kg | Vss_obs [1]: 9.23 L/kg | AUC(0-t) ([1]; mouse, in vivo): 3710 ng·h/mL | C0 ([1]; mouse, in vivo): 7510 ng/mL | half-life ([1]; mouse, in vivo): 13.5 h | Cl_obs [2]: 5.44 mL/min/kg | Vss_obs [2]: 5.06 L/kg | AUC(0-t) ([2]; rat, in vivo): 9170 ng·h/mL | C0 ([2]; rat, in vivo): 17300 ng/mL | half-life ([2]; rat, in vivo): 12.7 h | AUC(0-t) ([3]; dog, in vivo): 20700 ng·h/mL | C0 ([3]; dog, in vivo): 22700 ng/mL | half-life ([3]; dog, in vivo): 23.3 h | Cl_obs [3]: 1.96 mL/min/kg | Vss_obs [3]: 1.82 L/kg
SMILES: CCc1c(F)ccc2cc(O)cc(-c3ncc4c(N5CCOC[C@@](C)(O)C5)nc(OCC5(CN6CCC7(CCN(Cc8cnc(-c9cn([C@H](C(=O)N%10C[C@H](O)C[C@H]%10C(=O)N[C@@H](C)c%10ccc(-c%11scnc%11C)cc%10)C(C)C)nn9)cn8)CC7)CC6)CC5)nc4c3F)c12 [Compound 115, (2S,4R)-1-((S)-2-(4-(5-((9-((1-(((7-(8-ethyl-7-fluoro-3-hydroxynaphthalen-1-yl)-8-fluoro-4-((S)-6-hydroxy-6-methyl-1,4-oxazepan-4-yl)pyrido[4,3-d]pyrimidin-2-yl)oxy)methyl)cyclopropyl)methyl)-3,9-diazaspiro[5.5]undecan-3-yl)methyl)pyrazin-2-yl)-1H-1,2,3-triazol-1-yl)-3-methylbutanoyl)-4-hydroxy-N-((S)-1-(4-(4-methylthiazol-5-yl)phenyl)ethyl)pyrrolidine-2-carboxamide]
